The source of these data is patent US11274090B2, “P300/CBP HAT inhibitors” (Constellation Pharmaceuticals, Inc., priority 2018, dated 2022).

Each structure is given as a SMILES string. Some results are limits rather than exact numbers.

By IC50 is commonly meant the concentration that inhibits the measured activity by half.

The target of this test is p300 HAT domain (residues 1287-1666) (Homo sapiens (Human), UniProt Q09472). Put plainly: p300 HAT SPA assay (scintillation proximity assay, acetylation of biotinylated H3(1-21) peptide). The test is classed as biochemical. The following applies: average of at least 2 replicate titrations. The essentials: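 Scintillation proximity readout of acetylated biotin-H3(1-21) captured on streptavidin plates after 1.5 hr at RT; enzyme was Ni2+/anion-exchange-purified HAT domain in 20 mM Hepes pH 7.5. Inhibitor IC50s calculated from the data.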
Chain of p300 HAT domain (residues 1287-1666) (Q09472 1287-1666): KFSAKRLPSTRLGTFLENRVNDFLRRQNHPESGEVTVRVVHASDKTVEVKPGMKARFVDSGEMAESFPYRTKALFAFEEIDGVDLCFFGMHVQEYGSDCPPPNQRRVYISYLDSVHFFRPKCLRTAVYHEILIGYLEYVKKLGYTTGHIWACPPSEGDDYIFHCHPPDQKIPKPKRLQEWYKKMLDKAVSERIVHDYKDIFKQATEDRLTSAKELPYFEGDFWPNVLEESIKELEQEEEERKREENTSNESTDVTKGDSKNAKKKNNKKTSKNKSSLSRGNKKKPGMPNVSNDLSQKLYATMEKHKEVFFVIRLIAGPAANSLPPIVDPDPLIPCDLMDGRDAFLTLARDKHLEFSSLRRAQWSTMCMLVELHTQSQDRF
Background: SPA uses beads or plates that emit light when radiolabelled molecules are held near them.
Regarding `Cc1nn(C)c(C)c1-c1ccc(NC(=O)C(NC[C@@H](C)c2ccc(C#N)cc2)c2ccccc2)nc1` (single isomer, unassigned) [130 Isomer 1], the IC50 is less than 2000 nM.

For the molecule `CS(=O)(=O)N1CCN(c2ccc(NC(=O)C(NCCc3ccc(C#N)cc3)c3ccccc3)nc2)CC1` (single isomer, unassigned) [68 Isomer 1], the IC50 was more than 2000 nM.

Turning to `Cn1cc(-c2ccc(NC(=O)C(NCCc3ccc(C#N)cc3)c3ccc(C(F)(F)F)cc3)nc2)cn1` (single isomer, unassigned) [120 Isomer 2], the IC50 was more than 2000 nM.

`COc1cccc(C(NCCc2ccc(C#N)cc2)C(=O)Nc2ccc(-c3cnn(C)c3)cn2)c1` (single isomer, unassigned) [70 Isomer 2]: the midpoint of inhibition, the IC50, lay at 243 nM.

As for `CO[C@H]1CCN(c2ccc(NC(=O)C(NCC(C)c3ccc(C#N)cc3)c3ccccc3)nc2)C1` (single isomer, unassigned) [93 Isomer 2], the IC50 is more than 2000 nM.

`CC(CNC(C(=O)Nc1ccc(-c2cnn(C(C)(C)C)c2)cn1)c1ccccc1)c1ccc(C#N)cc1` (single isomer, unassigned) [54 Isomer 4] registered an IC50 of 1970 nM. This counts as single-digit micromolar.

On to `Cn1cc(-c2ccc(NC(=O)C(NCCc3ccc(C#N)cc3)c3ccccc3)cc2Cl)cn1` (single isomer, unassigned) [27 Isomer 2], for which the IC50 is more than 5000 nM.

`Cn1cc(-c2ncc(NC(=O)C(NCCc3ccc(C#N)cc3)c3ccccc3)cn2)cn1` (single isomer, unassigned) [23 Isomer 1] yielded an IC50 of more than 5000 nM.

Consider `N#Cc1ccc(CCNC(C(=O)Nc2ccc(C3CC3)cn2)c2ccccc2)cc1` (single isomer, unassigned) [42 Isomer 2], for which the IC50 was 3000 nM.

Turning to `Cn1cc(-c2ccc(NC(=O)C(NCCn3cc(C#N)cn3)c3ccccc3)nc2)cn1` (single isomer, unassigned) [144 Isomer 2], the IC50 is 1070 nM. This IC50 is about 2.8-fold lower than that of the molecule before.

Molecule `N#Cc1ccc(CCNC(C(=O)Nc2ccc(N3CCOCC3)cn2)c2ccccc2)cc1` (single isomer, unassigned) [81 Isomer 2] gave an IC50 of more than 2000 nM.

`COc1ccc(C(NCCc2ccc(C#N)cc2)C(=O)Nc2ccc(-c3cnn(C)c3)cn2)cc1` (single isomer, unassigned) [63 Isomer 2] came in with an IC50 of more than 2000 nM.

The molecule `C[C@H](CNC(C(=O)Nc1ccc(-c2cnn(C)c2)cn1)c1cncc(F)c1)c1ccc(C#N)cc1` (single isomer, unassigned) [129 Isomer 2] gave an IC50 of 20.2 nM.

As for `N#Cc1ccc(CCNC(C(=O)Nc2ccc(N3CCC4(COC4)C3)cn2)c2ccccc2)cc1` (single isomer, unassigned) [96 Isomer 1], it took 67.4 nM to reach half-maximal inhibition (IC50).

In the case of `Cn1cc(-c2ccc(NC(=O)C(NCC(c3ccc(C#N)cc3)C(F)(F)F)c3ccccc3)nc2)cn1` (single isomer, unassigned) [149 Isomer 3], the IC50 was found to be 647 nM.

Consider `CC(CNC(C(=O)Nc1ccc(-c2cnn(C)c2)cn1)c1cnn(C)c1)c1ccc(C#N)cc1` (single isomer, unassigned) [127 Isomer 2], for which the IC50 was more than 2000 nM.

For `CC(=O)N1CCN(c2ccc(NC(=O)C(NC[C@@H](C)c3ccc(C#N)cc3)c3cccc(F)c3)nc2)CC1` (single isomer, unassigned) [135 Isomer 1], the IC50 is 855 nM.

As to `N#Cc1ccc(CCNC(C(=O)Nc2ccn(C3CCOCC3)n2)c2ccccc2)cc1` (single isomer, unassigned) [30 Isomer 1], the IC50 is more than 5000 nM.

The molecule `Cn1cc(-c2ccc(NC(=O)C(NCCc3ccc(C#N)cc3)c3ccccc3Cl)nc2)cn1` (single isomer, unassigned) [88 Isomer 2] returned an IC50 of more than 2000 nM.

Turning to `C[C@H](CNC(C(=O)Nc1ccc(-c2cc(=O)n(C)cn2)cn1)c1ccccc1)c1ccc(C#N)cc1` (single isomer, unassigned) [106 Isomer 1], the IC50 is more than 2000 nM.

`Cc1nc(-c2ccc(NC(=O)C(NC[C@@H](C)c3ccc(C#N)cc3)c3ccccc3)nc2)no1` (single isomer, unassigned) [107 Isomer 2] yielded an IC50 of 72.3 nM.
